According to patent US8163939B2, “Ascorbic acid derivative or salt thereof, production method thereof, and cosmetic” (Seikwa Kasei Company, Limited, priority 2007, dated 2012):

Key:
B16 melanoma 4A5 cell = test: Whitening test: theophylline-induced melanine production in B16 melanoma 4A5 cells; type: cell-based, mouse; conditions: for Whitening effect (melanine production suppressing rate): sample at a concentration of 100 μM or less, theophylline-induced melanine production, 3 days culture, N=4;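 as to Whitening effect (melanine production suppressing rate): grades: ± under 20% + 20-40% ++ 40-70% +++ 70-100% suppression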
Description: As a test for a whitening effect, evaluation of the action of B16 melanoma 4A5 cell on theophylline-induced melanine production was carried out on an ascorbic acid derivative of the present invention, according to the following procedure. The same evaluation was carried out also on ascorbic acid, known compounds: ascorbic acid salts, and ascorbic acid derivatives, as comparison. The results are shown in Tables 38 to 40. • (1) B16 mouse melanoma 4A5 strain was sowed onto a 48-well plate at a cell density of 2.0×10^4 cells/well. • (2) Culturing was performed for 24 hours with Dulbecco's Modified Eagle's medium (manufactured by SIGMA. Hereinafter, abbreviated as D-MEM) containing 10% fetal bovine serum (manufactured by Roshe Diagnostics). Then, it was changed to 0.2 mM theophylline and a 10% fetal bovine serum-containing D-MEM which contains a sample of given concentration. • (3) After culturing for 3 days in the co-existence of a sample, the medium was removed using an aspirator. Then, after distilled water was added, cells were broken by an ultrasonic wave. • (4) Thereafter, the amount of protein was determined using BCA protein assay kit (manufactured by PIERCE), and the produced amount of melanine was measured by an alkali solubilizing method. To the cell-destructed solution was added sodium hydroxide so as to give a final concentration of 2N and the mixture was dissolved by heating (60° C., 15 minutes), then, the absorbance at 450 nm was measured using a micro plate reader. The melanine amount was calculated from a calibration curve made using synthetic melanine (SIGMA) as a standard. The melanine amount per unit protein was calculated by dividing the melanine amount by the protein amount. • (5) The melanine production suppressing rate was calculated according to the following formula. Melanine production suppressing rate (%)=[1−(A−B)/(C−B)]×100 [wherein, A represents the melanine amount per unit protein (g/g) in adding a sample, B represents the melanine amount per unit protein (g/g) in the normal group, and C represents the melanine amount per unit protein (g/g) in the control group.]
In the following Tables, the melanine production suppressing rate in measuring a sample at a concentration of 100 μM or less is expressed as described below. The measurement was carried out at N=4.

[1] = system: Normal human dermal fibroblasts; test: Collagen production of human fibroblast (Sircol collagen assay, 100 μM, 48 hours); type: cell-based; conditions: cultured 48 hours; for Collagen production promoting effect (collagen production amount, % of control group): N=4; for activity at 100 µM: Homo sapiens, Fibroblast, N=4, read-out: Collagen production promoting effect (collagen production amount, % of control group)
Description: Normal human dermal fibroblasts were regulated with a 10% (v/v) fetal bovine serum (manufactured by Roshe Diagnostics)-containing D-MEM so as to give a cell density of 2.5×10^4 cells/well, then, pre-incubation for 24 hours was performed on a 96-well plate. After the medium was removed, a sample regulated with a 5% (v/v) fetal bovine serum-containing D-MEM to a concentration of 100 μM was added to each well, then, cultured for 48 hours under 37° C. and 5% CO2. After completion of culturing, the amount of free collagen was measured using Sircol collagen assay kit (manufactured by Biocolor). The measurement was carried out at N=4.
The collagen production amount in measuring a sample at a concentration of 100 μM was compared with the control group, and the results thereof (% value when the control group is 100%) are shown in Tables 44 and 45 based on the following standard.

Compound | Whitening effect (melanine production suppressing rate) (B16 melanoma 4A5 cell) | other results
CCOCC(O)COC1=C(O)C(C(O)CO)OC1=O (stereo not shown) [Example 13, 2-O-ethylglyceryl ascorbic acid] | + (20 to 40%:+) | –
3-O-ethylglyceryl-2-O-butyl ascorbic acid [Example 18] | – | Collagen production promoting effect (collagen production amount, % of control group) [1]: + (100 to 200%:+)
CCCCCCCOC1=C(OCC(O)CO)[C@@H]([C@@H](O)CO)OC1=O (stereo partly shown) [Example 59] | ++ (40 to 70%:++) | –
CCCCCCCCCOC1=C(OCC(O)CO)[C@@H]([C@@H](O)CO)OC1=O (stereo partly shown) [Example 60] | +++ (70 to 100%:+++) | –
O=C1OC(C(O)CO)C(OCC(O)COc2ccccc2)=C1OCC(O)COc1ccccc1 (stereo not shown) [Example 88, 2,3-di-O-phenylglyceryl ascorbic acid] | ++ (40 to 70%:++) | Collagen production promoting effect (collagen production amount, % of control group) [1]: + (100 to 200%:+)
O=C1OC(C(O)CO)C(OC(CO)c2ccccc2)=C1O (stereo not shown) [compound 12, 3-O-(2-hydroxy-1-phenylethyl)ascorbic acid] | ++ (40 to 70%:++) | –
O=C1OC(C(O)CO)C(OCC(O)CO)=C1OCc1ccccc1 (stereo not shown) [Example 17, 3-O-glyceryl-2-O-benzyl ascorbic acid] | + (20 to 40%:+) | activity at 100 µM [1]: 100 to 200%
CCCCCCOC1=C(OCC(O)COCCCC)[C@@H]([C@@H](O)CO)OC1=O (stereo partly shown) [Example 69] | +++ (70 to 100%:+++) | –
CCCCCCCCOC1=C(OCC(O)COCCCC)[C@@H]([C@@H](O)CO)OC1=O (stereo partly shown) [Example 70] | ++ (40 to 70%:++) | –
OC[C@H]1O[C@@H](Oc2ccc(O)cc2)[C@H](O)[C@@H](O)[C@@H]1O [arbutin] | ++ (40 to 70%:++) | –
CCCCCCCCCCOC1=C(OCC(O)CO)[C@@H]([C@@H](O)CO)OC1=O (stereo partly shown) [Example 61] | +++ (70 to 100%:+++) | –
CCCCOCC(O)COC1=C(OCC)C(=O)O[C@@H]1[C@@H](O)CO (stereo partly shown) [Example 68] | + (20 to 40%:+) | –
CCCCCCCCC(O)COC1=C(OCC(O)CO)C(=O)OC1C(O)CO (stereo not shown) [Example 83] | + (20 to 40%:+) | Collagen production promoting effect (collagen production amount, % of control group) [1]: + (100 to 200%:+)
CCCCCCCCCCCCCCCCOCC(O)COC1=C(OCC(O)CO)C(C(O)CO)OC1=O (stereo not shown) [Example 86] | ++ (40 to 70%:++) | –
CCCCCCCCCCCCCOC1=C(OCC(O)CO)[C@@H]([C@@H](O)CO)OC1=O (stereo partly shown) [Example 64] | ++ (40 to 70%:++) | –
C=CCOC1=C(OCC(O)COc2ccccc2)[C@@H]([C@@H](O)CO)OC1=O (stereo partly shown) [Example 55] | + (20 to 40%:+) | –
CCCCOC1=C(OCC(O)CO)[C@@H]([C@@H](O)CO)OC1=O (stereo partly shown) [Example 57] | + (20 to 40%:+) | Collagen production promoting effect (collagen production amount, % of control group) [1]: + (100 to 200%:+)
CCCCCCCCC(O)COC1=C(OCC)C(C(O)CO)OC1=O (stereo not shown) [Example 98] | ++ (40 to 70%:++) | –
CCCCCCCCCCCCCCCCOCC(O)COC1=C(OCCCCCCCC)C(=O)O[C@@H]1[C@@H](O)CO (stereo partly shown) [Example 77] | + (20 to 40%:+) | –
CCCCCCCCCCCCOC1=C(OCC(O)CO)[C@@H]([C@@H](O)CO)OC1=O (stereo partly shown) [Example 63] | ++ (40 to 70%:++) | –

Compound | Whitening effect (melanine production suppressing rate) (B16 melanoma 4A5 cell) | other results
O=C1O[C@H]([C@@H](O)CO)C([O-])=C1O.[Na+] [sodium ascorbate, reference compound] | ± (<20%:±) | –
3-O-dodecylglyceryl-2-O-octylglyceryl ascorbic acid [Example 26] | ++ (40 to 70%:++) | –
CCOCC(O)COC1=C(O)C(=O)OC1C(O)CO (stereo not shown) [Example 7, 3-O-ethylglyceryl ascorbic acid] | + (20 to 40%:+) | –
O=C1O[C@H]([C@@H](O)CO)C(OCC(O)COc2ccccc2)=C1O (stereo partly shown) [Example 44] | – | Collagen production promoting effect (collagen production amount, % of control group) [1]: + (100 to 200%:+)
CCCCCCCCCCCOC1=C(OCC(O)CO)[C@@H]([C@@H](O)CO)OC1=O (stereo partly shown) [Example 62] | ++ (40 to 70%:++) | –
O=C1OC(C(O)CO)C(OC2CCCCC2O)=C1O (stereo not shown) [compound 11, 3-O-(2-hydroxycyclohexyl) ascorbic acid] | + (20 to 40%:+) | activity at 100 µM [1]: 100 to 200%
CCCCCCCCOCC(O)COC1=C(OCC(O)COCCCCCCCC)C(C(O)CO)OC1=O (stereo not shown) [Example 91] | + (20 to 40%:+) | –
CCCCCCCCCCCCCCCCOCC(O)COC1=C(OCC(O)COCCCCCCCC)C(C(O)CO)OC1=O (stereo not shown) [Example 92] | ++ (40 to 70%:++) | Collagen production promoting effect (collagen production amount, % of control group) [1]: + (100 to 200%:+)
CCCCCCCCOCC(O)COC1=C(OCCCCCCCC)C(=O)O[C@@H]1[C@@H](O)CO (stereo partly shown) [Example 73] | + (20 to 40%:+) | –
CC=CCOC1=C(OCC(O)COCCCC)[C@@H]([C@@H](O)CO)OC1=O (stereo partly shown) [Example 53] | + (20 to 40%:+) | –
CCCCCCCCCCCCCCOC1=C(OCC(O)CO)[C@@H]([C@@H](O)CO)OC1=O (stereo partly shown) [Example 65, 3-O-glyceryl-2-O-tetradecyl ascorbic acid] | ++ (40 to 70%:++) | whitening effect (in words) (B16 melanoma 4A5 cell; conclusion from Tables 38-40, compared with known ascorbic acid derivatives): excellent whitening effect
CCCCCCCCCCCCOC1=C(OCC(O)COCCCC)[C@@H]([C@@H](O)CO)OC1=O (stereo partly shown) [Example 71] | + (20 to 40%:+) | –
CCCCCCCCCCCCCCCCOCC(O)COC1=C(OCC(O)CO)C(=O)OC1C(O)CO (stereo not shown) [Example 82] | ++ (40 to 70%:++) | –
CCCCCCCCCCCCOCC(O)COC1=C(OCC(O)CO)C(C(O)CO)OC1=O (stereo not shown) [Example 85] | ++ (40 to 70%:++) | –
CCCCCCOC1=C(OCC(O)CO)[C@@H]([C@@H](O)CO)OC1=O (stereo partly shown) [Example 58] | ++ (40 to 70%:++) | –
CCCCCCCCCCCCCCCCOC1=C(OCC(O)CO)[C@@H]([C@@H](O)CO)OC1=O (stereo partly shown) [Example 15, 3-O-glyceryl-2-O-hexadecyl ascorbic acid] | ++ (40 to 70%:++) | –
CCOC1=C(OCC(O)CO)C(=O)OC1C(O)CO (stereo not shown) [Example 96] | + (20 to 40%:+) | –
CCCCCCCCCCCCCCCCOC1=C(OCC(O)COCCCC)[C@@H]([C@@H](O)CO)OC1=O (stereo partly shown) [Example 72] | ++ (40 to 70%:++) | –
CCCCCCCCC(O)COC1=C(OCCCC)C(=O)O[C@@H]1[C@@H](O)CO (stereo partly shown) [Example 79] | +++ (70 to 100%:+++) | –
